Reference: patent US20050119263A1, “Treatment of breast cancer” (priority 2001, published 2005)

Test system: metastatic and/or recurrent breast cancer
Experiment: Phase III clinical trial, survival of patients treated with DPPE/doxorubicin versus doxorubicin alone
Assay type: in vivo, human
Procedure: In the treatment of metastatic and/or recurrent breast cancer, the diphenyl compound preferably is used in an amount of about 3 to about 10 mg/kg of patient administered intravenously over a period of about 30 to about 90 minutes prior to administration of the chemotherapeutic agent(s) and continuing for the period of administration of the chemotherapy agent(s). In the specific Phase III clinical trial described herein, there was employed 5.3 mg/kg of DPPE in the form of the base (equivalent to 6 mg/kg of DPPE in the form of its hydrochloride), administered intravenously as an aqueous solution thereof over 80 minutes, with the last twenty minutes being accompanied by infusion of the specific chemotherapeutic agent.
The anthracycline chemotherapy agent active in breast cancer which is employed herein preferably is used in a total amount of about 50 to about 75 mg/M^2 of patient consistent with the identity of the anthracycline chemotherapy agent(s). In the specific Phase III clinical trial described herein, there was employed 60 mg/M^2 of doxorubicin administered over the last 20 minutes of infusion of the DPPE solution. […]
The survival time of patients was determined in relation to ER status for patients receiving the DPPE/DOX combination and DOX alone. […]
In addition, the survival times of patients was determined in relation to disease-free intervals for patients receiving the DPPE/DOX combination and DOX alone.
The survival times of patients was determined in relation to the number of cycles of treatment for patients receiving the DPPE/DOX combination and DOX alone.
The survival time for patients also was determined for those patients with metastatic breast cancer receiving no prior chemotherapy treatment in relation to those also had received prior chemotherapy treatment and for patients that had received no previous treatment type (i.e. no prior chemotherapy, radiotherapy and/or hormone treatment). The survival times were determined for patients receiving the DPPE/DOX combination and DOX alone.

| Compound | median overall survival (patients with metastatic disease who had no previous chemotherapy, DPPE 5.3 mg/kg iv over 80 min, doxorubicin 60 mg/M^2 over last 20 min) | median overall survival (patients with metastatic disease who had no previous treatment (chemotherapy, radiotherapy and/or hormone treatment)) | increase in overall survival compared to the control group (patients with aggressive breast cancer, pretreatment with DPPE before doxorubicin) |
| --- | --- | --- | --- |
| COc1cccc2c1C(=O)c1c(O)c3c(c(O)c1C2=O)C[C@@](O)(C(=O)CO)C[C@@H]3O[C@H]1C[C@H](N)[C@H](O)[C@H](C)O1 [DOX, doxorubicin] | 16.2 months | 15 months |  |
| CCN(CC)CCOc1ccc(Cc2ccccc2)cc1 [DPPE, N,N-diethyl-2-[4-(phenylmethyl)-phenoxy]ethanamine] |  |  | about 50% |
